Experimental data: publication PMC8069832, “New Amides and Phosphoramidates Containing Selenium: Studies on Their Cytotoxicity and Antioxidant Activities in Breast Cancer” (Antioxidants, 2021)
Read-outs that look alike come from different tables or passages of the source.

Tests used:
[1] = MTT cytotoxicity in nonmalignant mammary gland derived cells; format: cell-based; details: human
Description: (§1) Cell lines were provided by the European Collection of Cell Cultures (ECACC) or by the American Type Culture Collection (ATCC). Seven cell lines were used: MCF-7 (breast adenocarnicoma), 184B5 (nonmalignant, mammary gland derived), CCRF-CEM (lymphoblastic leukemia), HT-29 (colon carcinoma), HTB-54 (lung carcinoma), BEAS-2B (nonmalignant, derived from the bronchial epithelium) and PC-3 (prostate carcinoma). MCF-7, CCRF-CEM, HT-29, HTB-54, BEAS-2B and PC-3 cell lines were grown in RPMI medium (Gibco) supplemented with 10% fetal bovine serum (FBS; Gibco), 100 units/mL penicillin and […] streptomycin (Gibco). 184B5 cells were grown in DMEM/F12 medium supplemented with 5% FBS, 1 × ITS (Lonza), 100 nM hydrocortisone (Aldich), 2 mM sodium pyruvate (Lonza), 20 ng/mL EGF (Sigma-Aldrich), 0.3 nM trans-retinoic acid (Sigma-Aldrich), 100 units/mL penicillin and […] streptomycin. Cells were maintained at 37 °C and 5% CO2.
(§2) The cytotoxic effect of each substance was tested by the MTT method. Each compound was initially dissolved in DMSO at a concentration of 0.01 M, and serial dilutions were prepared with nonsupplemented medium. The cytotoxic effect of each compound was tested at 50 and 10 µM as a first screening. […]
(§3) A total of 1 × 10^4 cells/well in 96-well plates were treated with increasing concentrations of the corresponding compounds for 48 h at 37 °C in a humidified atmosphere containing 5% CO2. Then, cells were incubated with 50 µL of MTT (2 mg/mL stock) for 4 h. The medium was then removed by aspiration, and the formazan crystals were dissolved in […] of DMSO. […] Data were obtained from at least 3 independent experiments performed in quadruplicate. The standard error of the means (SEM) for the cytotoxic parameters was calculated applying the standard deviation formula to the mean values of each parameter for the three independent experiments performed.
(§4) . Cisplatin was used as a standard drug. […]. […] The presence of electron-withdrawing groups (-NO2, -CF3, -Cl) in the phenyl ring favored the cytotoxic activity in the amides, but in the phosphoramidates, the best results were obtained for aliphatic chains methoxy (II.1b, II.2b) and ethoxy (II.1d, II.2d). […].
(§5) The lack of selectivity toward cancerous cells is one of the major issues during the discovery and development of new anticancer agents. Therefore, we evaluated the cytotoxic activity of our compounds against two cell lines derived from nonmalignant breast tissue (184B5) and no malignant bronchial epithelium (BEAS-2B) (Table 2). […].

[2] = test system: 184B5; assay: as above; format: cell-based; details: for GI50 / IC (TGI): Homo sapiens; for GI50: read-out: GI50 184B5; for IC (TGI): read-out: TGI 184B5; for Selectivity index (SI) = GI50 (184B5)/GI50 (MCF-7): breast
Description: as §1, §2, §3, §4, §5

[3] = test system: HT-29; assay: cells; details: Homo sapiens, HT-29, 48 h; for activity at 10 µM: read-out: Cell growth (%) HT-29; for GI50: read-out: GI50 HT-29; for CC50: read-out: LC50 HT-29; for IC (TGI): read-out: TGI HT-29
[4] = test system: HTB-54; assay: cells; format: cell-based; details: Homo sapiens; for CC50: read-out: LC50 HTB54; for GI50: read-out: GI50 HTB54; for IC (TGI): read-out: TGI HTB54
Description: as §1, §2, §3, §4

[5] = test system: PC-3; assay: cells; format: cell-based; details: Homo sapiens; for LC50: read-out: LC50 PC-3; for GI50: read-out: GI50 PC-3; for IC (TGI): read-out: TGI PC-3
Description: as §1, §2, §3, §4

[6] = test system: MCF-7; details: read-out: GI50 MCF-7; 48 h, average ± SEM
[7] = test system: MCF-7; assay: cells; details: Homo sapiens, MCF7, 48 h; for activity at 10 µM: read-out: Cell growth (%) MCF-7; for GI50: read-out: GI50 MCF-7, 48 h, average ± SEM; for CC50: read-out: LC50 MCF-7; for IC (TGI): read-out: TGI MCF-7
[8] = test system: CCRF-CEM; assay: cells; details: Homo sapiens, 48 h; for activity at 10 µM: read-out: Cell growth (%) CCRF-CEM; for GI50: read-out: GI50 CCRF-CEM; for CC50: read-out: LC50 CCRF-CEM; for IC (TGI): read-out: TGI CCRF-CEM
[9] = MTT cytotoxicity in nonmalignant bronchial epithelium cells; format: cell-based; details: human
Description: as §1, §2, §3, §4, §5

[10] = test system: BEAS-2B; assay: as above; format: cell-based; details: for GI50 / IC (TGI): Homo sapiens, BEAS-2B, 48 h; for GI50: read-out: GI50 BEAS-2B; for IC (TGI): read-out: TGI BEAS-2B; for Selectivity index (SI) = GI50 (BEAS-2B)/GI50 (HTB-54): lung
Description: as §1, §2, §3, §4, §5

[11] = test system: MCF-7; set-up: method as in earlier work; details: DTP database of the NCI; cited from earlier work
[12] = test system: CCRF-CEM; set-up: method as in earlier work; details: DTP database of the NCI; cited from earlier work
[13] = test system: HT-29; set-up: method as in earlier work; details: DTP database of the NCI; cited from earlier work
[14] = test system: HTB-54; set-up: method as in earlier work; details: DTP database of the NCI, cited from earlier work
[15] = test system: PC-3; set-up: method as in earlier work; details: DTP database of the NCI; cited from earlier work
[16] = DPPH radical scavenging assay
Description: The DPPH (1,1-diphenyl-2-picrylhydrazyl radical) assay measures the hydrogen donation ability of the antioxidant to convert the stable DPPH free radical into 1,1-diphenyl-2-(2,4,6-trinitrophenyl)-hydrazine. After radical reaction with the compounds, a decrease in the absorbance was detected at 517 nm, which is accompanied by a change of color from violet to light-yellow. The target compounds were dissolved in methanol to make 1 mg/mL stock solutions, which were diluted to five concentrations as test samples. Ascorbic acid was used as a standard, and the experiment was carried out on 96-well plates. The DPPH solution was prepared at a 100 µM concentration. For each test, 100 µL of DPPH solution was added to 100 µL of methanolic solution containing the tested derivatives, and the absorbance was determined at different time points. All the measurements were carried out in triplicate. Results were expressed as the percentage of the radical scavenged, calculated using the following formula:(1) % DPPH radical scavenging=Acontrol − Asample/Acontrol × 100 where Acontrol refers to the absorbance of the negative control, and Asample refers to the absorbance of the tested compounds. Results are expressed as a percentage of DPPH radical scavenged ± SEM.
. Ascorbic acid and Trolox were used as radical scavenger gold standards. […]. No correlation was found for either structure–radical scavenging activity or antitumor–radical scavenging activity, except for compound I.2f, one of the selected cytotoxic agents. To further confirm this antioxidant activity, three compounds (I.1e, I.1g and I.2i) were also evaluated as DPPH radical scavengers at a lower concentration of 0.003 mg/mL (Figure 3B).

[17] = 184B5, nonmalignant cells, 48 h

SMILES | LC50 (50% lethal concentration) at 48 h [1] [µM] | GI50 [2, 17] [µM] | IC (TGI) [2, 17] [µM] | activity at 10 µM [3] [%] | GI50 [3] [µM] | CC50 [3] [µM] | IC (TGI) [3] [µM] | CC50 ([4]; HTB-54, 48 h) [µM] | GI50 ([4]; HTB-54, 48 h, average ± SEM) [µM] | IC (TGI) ([4]; HTB-54, 48 h, average ± SEM) [µM] | LC50 ([5]; PC-3, 48 h) [µM] | GI50 ([5]; PC-3, 48 h, average ± SEM) [µM] | activity at 10 µM [7] [%] | GI50 [7] [µM] | CC50 [7] [µM] | IC (TGI) [7] [µM] | activity at 10 µM [8] [%] | GI50 [8] [µM] | CC50 [8] [µM] | IC (TGI) [8] [µM] | other results
N#C[Se]c1ccc(NC(=O)c2ccc([N+](=O)[O-])cc2)cc1 [I.2e] | > 100 | 7.13 | > 100 | 35.9 | 0.8 ± 0.1 | > 100 | 58.2 ± 6.4 | > 100 | > 100 | > 100 | > 100 | > 100 | 33.4 | < 1 | > 100 | 54.4 ± 2.7 | 50.3 | 31.6 ± 0.4 | > 100 | > 100 | IC (TGI) ([5]; PC-3, 48 h, average ± SEM): > 100 µM; GI50 [6]: 0.6 ± 0.1 µM; LC50 (50% lethal concentration) at 48 h [9]: > 100 µM; GI50 ([10]; nonmalignant cells): > 100 µM; IC (TGI) ([10]; nonmalignant cells): > 100 µM
COP(=O)(Nc1ccc([Se]C#N)cc1)OC [II.2b] | – | – | – | -69.4 | 2 ± 0.3 | 5 ± 0.1 | 3.5 ± 0.1 | 34.6 ± 0.4 | – | – | 49 ± 0.7 | – | -5.82 | < 1 | 9.1 ± 0.7 | 5 ± 1 | -67.4 | 1.6 ± 0.2 | 4.8 ± 0.3 | 3.2 ± 0.2 | CC50 at 48 h ([1]; nonmalignant cells, 48 h, read-out: LC50 184B5): 8.44 µM; GI50 ([2]; 184B5, 48 h): 5.44 µM; IC (TGI) ([2]; 184B5, 48 h): 6.94 µM; Selectivity index (SI) = GI50 (184B5)/GI50 (MCF-7) [2]: 7.56; GI50 ([4]; HTB-54, 48 h): 6.2 ± 0.2 µM; IC (TGI) ([4]; HTB-54, 48 h): 8.6 ± 0.4 µM; GI50 ([5]; PC-3, 48 h): 6.4 ± 0.2 µM; IC (TGI) ([5]; PC-3, 48 h): 9.3 ± 0.1 µM; GI50 [6]: 0.6 ± 0.2 µM; LC50 (50% lethal concentration) at 48 h ([9]; nonmalignant cells, 48 h, read-out: LC50 BEAS-2B): 8.38 µM; GI50 [10]: 5.22 µM; IC (TGI) [10]: 6.8 µM; Selectivity index (SI) = GI50 (BEAS-2B)/GI50 (HTB-54) [10]: 0.84
N#C[Se]c1ccc(NC(=O)c2ccc(Cl)cc2)cc1 [I.2b] | > 100 | 0.89 | > 100 | 52.3 | 16.5 ± 3.6 | > 100 | > 100 | > 100 | > 100 | > 100 | > 100 | > 100 | 33.5 | < 1 | > 100 | 51.8 ± 2.5 | 50.1 | 8.7 ± 1.1 | > 100 | > 100 | Selectivity index (SI) = GI50 (184B5)/GI50 (MCF-7) [2]: 1.53; IC (TGI) ([5]; PC-3, 48 h, average ± SEM): > 100 µM; GI50 [6]: 0.5 ± 0.9 µM; LC50 (50% lethal concentration) at 48 h [9]: > 100 µM; GI50 ([10]; nonmalignant cells): > 100 µM; IC (TGI) ([10]; nonmalignant cells): > 100 µM
N.N.[Cl][Pt][Cl] [Cp, cisplatin] | – | – | – | – | – | – | – | – | – | – | – | – | – | – | – | – | – | – | – | – | GI50 [11]: 3.2 µM; TGI MCF-7 [11]: >100 µM; GI50 [12]: 1 µM; TGI CCRF-CEM [12]: 79.6 µM; GI50 [13]: 7.9 µM; TGI HT-29 [13]: >100 µM; TGI HTB54 [14]: 32.7 µM; GI50 ([14]; read-out: GI50 HTB54): 9.6 µM; GI50 [15]: 5 µM; TGI PC-3 [15]: 50.1 µM
O=C(Nc1ccc([Se][Se]c2ccc(NC(=O)c3ccc([N+](=O)[O-])cc3)cc2)cc1)c1ccc([N+](=O)[O-])cc1 [I.1e] | 68.2 | 7.76 | 33.8 | 49.2 | 16.8 ± 2.5 | 72.3 ± 1.8 | 44.6 ± 3.1 | 72.8 ± 1.4 | 16.9 ± 3.1 | 44.8 ± 2.3 | 64.9 ± 1.1 | 2.5 ± 0.2 | 45.2 | 7.4 ± 1 | 73.4 ± 0.1 | 40.1 ± 0.1 | 35.4 | 6.5 ± 1.5 | 67 ± 2 | 33.8 ± 2 | Selectivity index (SI) = GI50 (184B5)/GI50 (MCF-7) [2]: 1.14; IC (TGI) ([5]; PC-3, 48 h, average ± SEM): 28.5 ± 1.9 µM; DPPH radical scavenging activity ([16]; 0.003 mg/mL): some moderate effect was observed; DPPH activity inhibition ([16]; 0.03 mg/mL, after 30 min): greater than 35%; LC50 (50% lethal concentration) at 48 h [9]: 15.8 µM; GI50 ([10]; nonmalignant cells): 0.42 µM; IC (TGI) ([10]; nonmalignant cells): 4.8 µM; Selectivity index (SI) = GI50 (BEAS-2B)/GI50 (HTB-54) [10]: 0.02
